{"source": "ChEMBL document CHEMBL1212771", "about": "“BEL-2, an extended-spectrum beta-lactamase with increased activity toward expanded-spectrum cephalosporins in Pseudomonas aeruginosa” (Antimicrob Agents Chemother, 2010)", "key": {"[1]": {"test_system": "Escherichia coli", "assay": "Antimicrobial activity against Escherichia coli TOP10 by solid agar dilution method", "assay_type": "functional"}, "[2]": {"test_system": "Pseudomonas aeruginosa", "assay": "Antimicrobial activity against Pseudomonas aeruginosa 531 expressing beta-lactamase BEL-2 by solid agar dilution method", "assay_type": "functional"}, "[3]": {"test_system": "Escherichia coli", "assay": "Antimicrobial activity against Escherichia coli TOP10 expressing recombinant beta-lactamase BEL-1 by solid agar dilution method", "assay_type": "functional"}, "[4]": {"test_system": "Escherichia coli", "assay": "Antimicrobial activity against Escherichia coli TOP10 expressing recombinant beta-lactamase BEL-2 by solid agar dilution method", "assay_type": "functional"}, "[5]": {"test_system": "Pseudomonas aeruginosa", "assay": "Antimicrobial activity against Pseudomonas aeruginosa 51170 expressing beta-lactamase BEL-1 by solid agar dilution method", "assay_type": "functional"}, "[6]": {"test_system": "Pseudomonas aeruginosa", "assay": "Ratio of Km for Pseudomonas aeruginosa 51170 beta-lactamase BEL-1 to Km for Pseudomonas aeruginosa 531 beta-lactamase BEL-2"}}}
{"smiles": "CC(=O)OCC1=C(C(=O)O)N2C(=O)[C@@H](NC(=O)Cc3cccs3)[C@H]2SC1", "note": "[CEPHALOTHIN]", "values": [{"measurement": "MIC", "setting": "[1]", "result": 2, "unit": "µg/mL"}, {"measurement": "MIC", "setting": "[2]", "result": "> 512", "unit": "µg/mL"}, {"measurement": "MIC", "setting": "[3]", "result": 256, "unit": "µg/mL"}, {"measurement": "MIC", "setting": "[4]", "result": 256, "unit": "µg/mL"}, {"measurement": "MIC", "setting": "[5]", "result": "> 512", "unit": "µg/mL"}]}
{"smiles": "CC1(C)S[C@@H]2[C@H](NC(=O)[C@H](N)c3ccc(O)cc3)C(=O)N2[C@H]1C(=O)O", "note": "[AMOXICILLIN]", "values": [{"measurement": "MIC", "setting": "[1]", "result": 4, "unit": "µg/mL"}, {"measurement": "MIC", "setting": "[2]", "result": "> 512", "unit": "µg/mL"}, {"measurement": "MIC", "setting": "[3]", "result": "> 512", "unit": "µg/mL"}, {"measurement": "MIC", "setting": "[4]", "result": "> 512", "unit": "µg/mL"}, {"measurement": "MIC", "setting": "[5]", "result": "> 512", "unit": "µg/mL"}]}
{"smiles": "CO/N=C(\\C(=O)N[C@@H]1C(=O)N2C(C(=O)O)=C(COC(N)=O)CS[C@H]12)c1ccco1", "note": "[CEFUROXIME]", "values": [{"measurement": "MIC", "setting": "[1]", "result": 2, "unit": "µg/mL"}, {"measurement": "MIC", "setting": "[2]", "result": "> 512", "unit": "µg/mL"}, {"measurement": "Ratio", "setting": "[6]", "result": 300}, {"measurement": "MIC", "setting": "[3]", "result": 128, "unit": "µg/mL"}, {"measurement": "MIC", "setting": "[4]", "result": 32, "unit": "µg/mL"}, {"measurement": "MIC", "setting": "[5]", "result": "> 512", "unit": "µg/mL"}]}
